From ChEMBL document CHEMBL3639296, “Pyrazolopyrimidine compounds as kinase inhibitors” (2015)

Molecular target: Tyrosine-protein kinase BTK (Homo sapiens, UniProt Q06187)
Assay: Caliper-Based Kinase Assay: A Caliper-based kinase assay (Caliper Life Sciences, Hopkinton, Mass.) was used to measure inhibition of Btk kinase activity of a compound of the present disclosure. […] The reaction was then terminated with EDTA, final concentration 20 mM and the phosphorylated reaction product was quantified on a Caliper Desktop Profiler (Caliper LabChip 3000).

Sequence of Tyrosine-protein kinase BTK (Q06187 whole entry): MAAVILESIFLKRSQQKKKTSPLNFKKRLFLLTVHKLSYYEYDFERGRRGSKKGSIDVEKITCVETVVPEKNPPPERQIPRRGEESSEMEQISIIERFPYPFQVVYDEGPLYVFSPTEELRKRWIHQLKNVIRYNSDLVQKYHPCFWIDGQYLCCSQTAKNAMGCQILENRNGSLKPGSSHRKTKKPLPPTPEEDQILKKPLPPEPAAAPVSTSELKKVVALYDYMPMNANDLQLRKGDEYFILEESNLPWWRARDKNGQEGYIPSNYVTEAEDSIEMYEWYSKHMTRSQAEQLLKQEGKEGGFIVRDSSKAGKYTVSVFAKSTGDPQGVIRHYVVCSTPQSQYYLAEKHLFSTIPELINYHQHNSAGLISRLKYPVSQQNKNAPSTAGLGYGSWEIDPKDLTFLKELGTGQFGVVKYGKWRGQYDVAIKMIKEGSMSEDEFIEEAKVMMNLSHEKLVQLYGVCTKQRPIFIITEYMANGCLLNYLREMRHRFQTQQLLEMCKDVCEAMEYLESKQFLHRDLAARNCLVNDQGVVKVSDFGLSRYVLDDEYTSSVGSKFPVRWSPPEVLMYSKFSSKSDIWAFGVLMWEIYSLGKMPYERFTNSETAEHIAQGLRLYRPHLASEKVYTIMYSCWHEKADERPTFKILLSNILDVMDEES

Structure (SMILES)	IC50
CC(C)(C=C(C#N)C(=O)N1CCC[C@H]1Cn1nc(-c2ccc(Oc3ccccc3)cc2F)c2c(N)ncnc21)NC1COC1	16.1 nM
CC(C)(C)N1CCN(C(C)(C)C=C(C#N)C(=O)N2CCC[C@@H](n3nc(-c4ccc(Oc5ccccc5)cc4F)c4c(N)ncnc43)C2)CC1	0.6 nM
CC(C)(C=C(C#N)C(=O)N1CCC[C@H]1Cn1nc(-c2ccc(Oc3ccccc3)cc2F)c2c(N)ncnc21)N(C1CC1)C1COC1	26 nM
